Assay [1] concerns the target T1, HCV polymerase (NS5B) type 1a (Hepatitis C virus genotype 1a, UniProt P26664).
T1 construct: made in house; host or cells: Escherichia coli (by the 'similar method' of the 1b enzyme)
As to the kind of experiment: Assay of enzyme (HCV polymerase) inhibitory activity, type 1a enzyme. The class given is biochemical, HCV type 1a (cloned from the blood of patients). The settings on record: HCV polymerase inhibitory activity (IC50), 1a, type 1a enzyme 1.5 μg/ml, 25° C., 60 min. In outline:
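His-tagged NS5B, C-terminal 47 residues deleted, type 1a at 1.5 μg/ml, with 5 μg/ml HCV 3′UTR substrate RNA, 50 μM ATP/GTP/CTP, 2 μM UTP plus [3H]UTP, pH 7.5 Tris, 5 mM MgCl2; 60 min at 25° C. TCA-precipitated RNA counted by scintillation; IC50 from radioactivity with vs. without compound.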

The target in assay [2] is T2, HCV polymerase (NS5B) type 1b (Hepatitis C virus genotype 1b, UniProt P26663).
T2 construct: a region encoding NS5B (J Virol 1991 March, 65(3), 1105-13, 544 amino acids after deletion of 47 amino acids on the C-terminal); 6xHis (C); made in house; host or cells: Escherichia coli
The assay is described as follows: Assay of enzyme (HCV polymerase) inhibitory activity, type 1b enzyme. The settings on record: HCV polymerase inhibitory activity (IC50), 1b, type 1b enzyme 0.5 μg/ml, 25° C., 60 min. In kind it is biochemical, HCV BK strain (type 1b). In outline:
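His-tagged, C-terminally truncated NS5B (BK strain, 1b; 0.5 μg/ml) incubated with compound 60 min at 25 °C on 3′UTR-derived substrate RNA (5 μg/ml), 50 μM ATP/GTP/CTP, 2 μM UTP plus [3H]UTP, pH 7.5. Acid-precipitated RNA counted; IC50 from radioactivity with and without compound.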

Broadly, the IC50 is the concentration that inhibits the measured activity by half. Low values mean inhibition by little substance, high ones a need for much substance. Consider `CCCc1ccc(CNC(=O)[C@H]2CN(c3cnc(NS(C)(=O)=O)cn3)CCN2S(=O)(=O)c2ccc(OC(F)(F)F)cc2)cc1` [Example 544, (R)-5′-methanesulfonylamino-4-(4-trifluoromethoxy-benzenesulfonyl)-3,4,5,6-tetrahydro-2H-[1,2′]bipyrazinyl-3-carboxylic acid 4-propyl-benzylamide], for which the IC50 in assay [1] and in assay [2] was less than 100 nM each time.

As to `CC(C)(C)c1ccc(CNC(=O)[C@H]2CN(c3cnc(CO)cn3)CCN2S(=O)(=O)c2ccc(OC(F)(F)F)cc2)cc1` [Example 545, (R)-5′-hydroxymethyl-4-(4-trifluoromethoxy-benzenesulfonyl)-3,4,5,6-tetrahydro-2H-[1,2′]bipyrazinyl-3-carboxylic acid 4-tert-butyl-benzylamide], the IC50 in assay [1] and in assay [2] was less than 100 nM in each case.

As for `CCCc1ccc(CNC(=O)[C@H]2CN(c3ccc(O)nn3)CCN2S(=O)(=O)c2ccc(OC(F)(F)F)cc2)cc1` [Example 546, (R)-4-(6-hydroxy-pyridazin-3-yl)-1-(4-trifluoromethoxy-benzenesulfonyl)-piperazine-2-carboxylic acid 4-propyl-benzylamide], the 50% inhibitory concentration (IC50) in assay [1] and in assay [2] was less than 100 nM in each case.

With `CCCc1ccc(CNC(=O)[C@H]2CN(c3ccc(C(N)=O)nn3)CCN2S(=O)(=O)c2ccc(OC(F)(F)F)cc2)cc1` [Example 547, 6-[(R)-3-(4-propyl-benzylcarbamoyl)-4-(4-trifluoromethoxy-benzenesulfonyl)-piperazin-1-yl]-pyridazine-3-carboxylic acid amide], the IC50 in assay [1] and in assay [2] was less than 100 nM throughout.

As to `CCCc1ccc(CNC(=O)[C@H]2CN(c3nc4c(s3)CN(C)CC4)CCN2S(=O)(=O)c2ccc(OC(F)(F)F)cc2)cc1` [Example 548, (R)-4-(5-methyl-4,5,6,7-tetrahydro-thiazolo[5,4-c]pyridin-2-yl)-1-(4-trifluoromethoxy-benzenesulfonyl)-piperazine-2-carboxylic acid 4-propyl-benzylamide], the IC50 in assay [1] and in assay [2] was less than 100 nM throughout.

Consider `CCCc1ccc(CNC(=O)[C@H]2CN(c3cnc(CO)c(N)n3)CCN2S(=O)(=O)c2ccc(OC(F)(F)F)cc2)cc1` [Example 549, (R)-6′-amino-5′-hydroxymethyl-4-(4-trifluoromethoxy-benzenesulfonyl)-3,4,5,6-tetrahydro-2H-[1,2′]bipyrazinyl-3-carboxylic acid 4-propyl-benzylamide], for which the IC50 in assay [1] and in assay [2] was less than 100 nM each time.

Regarding `CC(=O)N1CCN(S(=O)(=O)c2ccc(OC(F)(F)F)cc2)[C@@H](C(=O)NCc2ccc(C(F)(F)C(F)(F)F)cc2)C1` [Example 550, (R)-4-acetyl-1-(4-trifluoromethoxy-benzenesulfonyl)-piperazine-2-carboxylic acid 4-pentafluoroethyl-benzylamide], the IC50 in assay [1] and in assay [2] was 100 to 1000 nM throughout.

For `Cc1nnn(CC(=O)N2CCN(S(=O)(=O)c3ccc(OC(F)(F)F)cc3)[C@@H](C(=O)NCc3ccc(C(F)(F)C(F)(F)F)cc3)C2)n1` [Example 551, (R)-4-[2-(5-methyl-tetrazol-2-yl)-acetyl]-1-(4-trifluoromethoxy-benzenesulfonyl)-piperazine-2-carboxylic acid 4-pentafluoroethyl-benzylamide], the IC50 in assay [1] and in assay [2] was 100 to 1000 nM in each case.

Turning to `Cc1nnc(NC(=O)N2CCN(S(=O)(=O)c3ccc(OC(F)(F)F)cc3)[C@@H](C(=O)NCc3ccc(C(F)(F)C(F)(F)F)cc3)C2)s1` [Example 552, (R)-4-(4-trifluoromethoxy-benzenesulfonyl)-piperazine-1,3-dicarboxylic acid 1-[(5-methyl-[1,3,4]thiadiazol-2-yl)-amide] 3-(4-pentafluoroethyl-benzylamide)], the IC50 was greater than 1000 nM in assay [1] and 100 to 1000 nM in assay [2].

Consider `CCC(F)(F)c1ccc(CNC(=O)[C@H]2CN(C(=O)Nc3cc(C)ns3)CCN2S(=O)(=O)c2ccc(OC(F)(F)F)cc2)cc1` [Example 553, (R)-4-(4-trifluoromethoxy-benzenesulfonyl)-piperazine-1,3-dicarboxylic acid 3-[4-(1,1-difluoro-propyl)-benzylamide] 1-[(3-methyl-isothiazol-5-yl)-amide]], for which the IC50 in assay [1] and in assay [2] was less than 100 nM throughout.

For `CCC(F)(F)c1ccc(CNC(=O)[C@H]2CN(C(=O)Nc3nccs3)CCN2S(=O)(=O)c2ccc(OC(F)(F)F)cc2)cc1` [Example 554, (R)-4-(4-trifluoromethoxy-benzenesulfonyl)-piperazine-1,3-dicarboxylic acid 3-[4-(1,1-difluoro-propyl)-benzylamide] 1-thiazol-2-ylamide], the IC50 in assay [1] is 100 to 1000 nM; in assay [2], less than 100 nM.

As to `CCC(F)(F)c1ccc(CNC(=O)[C@H]2CN(C(=O)Nc3ccnc(C(F)(F)F)c3)CCN2S(=O)(=O)c2ccc(OC(F)(F)F)cc2)cc1` [Example 555, (R)-4-(4-trifluoromethoxy-benzenesulfonyl)-piperazine-1,3-dicarboxylic acid 3-[4-(1,1-difluoro-propyl)-benzylamide] 1-[(2-trifluoromethyl-pyridin-4-yl)-amide]], the IC50 in assay [1] and in assay [2] was 100 to 1000 nM each time.

Turning to `CCCc1ccc(CNC(=O)[C@H]2CN(c3cnc4c(n3)NC(=O)OC4)CCN2S(=O)(=O)c2ccc(OC(F)(F)F)cc2)cc1` [Example 556, (R)-4-(2-oxo-1,4-dihydro-2H-pyrazino[2,3-d][1,3]oxazin-7-yl)-1-(4-trifluoromethoxy-benzenesulfonyl)-piperazine-2-carboxylic acid 4-propyl-benzylamide], the IC50 in assay [1] and in assay [2] was less than 100 nM throughout.

In the case of `CCCc1ccc(CNC(=O)[C@H]2CN(c3nc4c(s3)CNCC4)CCN2S(=O)(=O)c2ccc(OC(F)(F)F)cc2)cc1` [Example 557, (R)-4-(4,5,6,7-tetrahydro-thiazolo[5,4-c]pyridin-2-yl)-1-(4-trifluoromethoxy-benzenesulfonyl)-piperazine-2-carboxylic acid 4-propyl-benzylamide], the IC50 in assay [1] and in assay [2] was less than 100 nM in each case.

In the case of `CC(C)(C)c1ccc(CNC(=O)[C@H]2CN(c3cnc(CN4CCCC4)cn3)CCN2S(=O)(=O)c2ccc(OC(F)(F)F)cc2)cc1` [Example 558, (R)-5′-pyrrolidin-1-ylmethyl-4-(4-trifluoromethoxy-benzenesulfonyl)-3,4,5,6-tetrahydro-2H-[1,2′]bipyrazinyl-3-carboxylic acid 4-tert-butyl-benzylamide], the figures for the IC50 in assay [1] and in assay [2] were 100 to 1000 nM and less than 100 nM, respectively.

`CCC(F)(F)c1ccc(CNC(=O)[C@H]2CN(c3cnc(C(=O)O)cn3)CCN2S(=O)(=O)c2ccc(OC(F)(F)F)cc2)cc1` [Example 559, (R)-3-[4-(1,1-difluoro-propyl)-benzylcarbamoyl]-4-(4-trifluoromethoxy-benzenesulfonyl)-3,4,5,6-tetrahydro-2H-[1,2′]bipyrazinyl-5′-carboxylic acid]: the IC50 in assay [1] and in assay [2] was less than 100 nM throughout.

In the case of `CCC(F)(F)c1ccc(CNC(=O)[C@H]2CN(c3cnc(CO)cn3)CCN2S(=O)(=O)c2ccc(OC(F)(F)F)cc2)cc1` [Example 560, (R)-5′-hydroxymethyl-4-(4-trifluoromethoxy-benzenesulfonyl)-3,4,5,6-tetrahydro-2H-[1,2′]bipyrazinyl-3-carboxylic acid 4-(1,1-difluoro-propyl)-benzylamide], the IC50 in assay [1] and in assay [2] was less than 100 nM each time.

With `CCCc1ccc(CNC(=O)[C@H]2CN(c3nc4c(s3)CN(Cc3ccccc3)CC4)CCN2S(=O)(=O)c2ccc(OC(F)(F)F)cc2)cc1` [Example 561, (R)-4-(5-benzyl-4,5,6,7-tetrahydro-thiazolo[5,4-c]pyridin-2-yl)-1-(4-trifluoromethoxy-benzenesulfonyl)-piperazine-2-carboxylic acid 4-propyl-benzylamide], the 50% inhibitory concentration (IC50) in assay [1] and in assay [2] was less than 100 nM in each case.

`CCCc1ccc(CNC(=O)[C@H]2CN(c3nc(CO)c(CO)s3)CCN2S(=O)(=O)c2ccc(OC(F)(F)F)cc2)cc1` [Example 562, (R)-4-(4,5-bis-hydroxymethyl-thiazol-2-yl)-1-(4-trifluoromethoxy-benzenesulfonyl)-piperazine-2-carboxylic acid 4-propyl-benzylamide]: the IC50 in assay [1] and in assay [2] was less than 100 nM in each case.

Turning to `CCCc1ccc(CNC(=O)[C@H]2CN(c3nc(C)ns3)CCN2S(=O)(=O)c2ccc(OC(F)(F)F)cc2)cc1` [Example 563, (R)-4-(3-methyl-[1,2,4]thiadiazol-5-yl)-1-(4-trifluoromethoxy-benzenesulfonyl)-piperazine-2-carboxylic acid 4-propyl-benzylamide], the IC50 in assay [1] and in assay [2] was less than 100 nM throughout.

`CCc1ccc(S(=O)(=O)N2CCN(c3cnc(C(=O)O)cn3)C[C@@H]2C(=O)NCc2ccc(C(F)(F)CC)cc2)cc1` [Example 564, (R)-3-[4-(1,1-difluoro-propyl)-benzylcarbamoyl]-4-(4-ethyl-benzenesulfonyl)-3,4,5,6-tetrahydro-2H-[1,2′]bipyrazinyl-5′-carboxylic acid]: the IC50 in assay [1] and in assay [2] was less than 100 nM in each case.

The record behind these values is patent US8017612B2, “Piperazine compound and use thereof as a HCV polymerase inhibitor” (priority 2006, dated 2011).
